# According to patent publication US12454509B2, “Local anesthetics with selective-sensory nerve blockade” (Children's Medical Center Corporation, priority 2019, dated 2025):
# Assays:
# sciatic nerve [1] = assay: Sciatic nerve block in rats: duration of thermal nociceptive (sensory) block, modified hotplate test; format: in vivo, rat; conditions: for Block Duration (min) Sensory: rat sciatic nerve injection 0.3 mL; for Sensory:Motor Block Ratio: rat sciatic nerve block
# Source text: (§1) Sciatic Nerve Block and Neurobehavioral Testing. Animals were cared for in compliance with protocols approved by the Children's Hospital Animal Care and Use Committee, and the Massachusetts Institute of Technology Committee on Animal Care, which conformed to guidelines of the International Association for the Study of Pain. Adult male Sprague-Dawley rats (Charles River Laboratories) weighing 320-450 g were housed in groups, in a 6 AM to 6 PM light-dark cycle. Under brief isoflurane-oxygen anesthesia, a 23G needle was introduced postero-medial to the greater trochanter, until bone was contacted, and 0.3 mL of test solution was injected over the sciatic nerve. Thermal nociception was assessed by a modified hotplate test, and motor function via a weight-bearing test. […] Motor strength was assessed with a weight-bearing test. In brief, the animal was held over a digital balance such that it could bear weight with 1 hind paw at a time. The maximum weight that it could bear was recorded. The duration of motor blockade was defined as the time for weight bearing to return halfway to normal from maximal block. The halfway point for each rat was defined as […].
# sciatic nerve [2] = assay: Sciatic nerve block in rats: duration of motor block, weight-bearing test; format: in vivo; conditions: rat sciatic nerve injection 0.3 mL
# Source text: as §1
# PC12 cells = assay: Cytotoxicity in PC12 cells; format: cell-based, rat; conditions: for cytotoxicity compared with ropivacaine and bupivacaine (in words): FIG. 1 / Table 2
# Description: (§2) C2C12 Mouse myoblasts [American Type Culture Collection (ATCC) CRL-1772] were cultured to proliferate in DMEM supplemented with 20% FBS and 100 Penicillin Streptomycin. Cell culture supplies were obtained from Invitrogen, unless otherwise noted. Cells were plated at 50,000 cells per mL in DMEM with 2% horse serum and 1% Penn Strep, and left to differentiate into myotubules for 10-14 days. During differentiation, media were exchanged every 2 to 3 days. Cell viability and proliferation were studied after exposures to drugs for up to 24 h. PC12 cells (ATCC, CRL-1721) originating from rat adrenal gland pheochromocytoma were grown in 24-well tissue culture dishes (CellBind; Corning) with F-12K (ATCC) supplemented with 12.5% horse serum (Gibco), 2.5% FBS (Gibco), and 1% Penn Strep (Sigma). For neuronal induction (PC12), cells were seeded at a relative low density of 5×10^4 cells/cm2 and 50 ng/mL NGF was added 24 h after seeding. Cell viability and proliferation were evaluated as for C2C12 cells. Experiments with PC12 cells were conducted for up to 24 hours.
# C2C12 Mouse myoblasts = assay: Cytotoxicity in C2C12 myotubules; format: cell-based; conditions: C2C12 cells; for cytotoxicity compared with ropivacaine and bupivacaine (in words): FIG. 2 / Table 2
# Description: as §2
Compound,Block Duration (min) Sensory (sciatic nerve [1]; dose conc 10 mM),Block Duration (min) Motor (sciatic nerve [2]; dose conc 10 mM),Block Duration (min) Sensory (sciatic nerve [1]; dose conc 15 mM),Block Duration (min) Motor (sciatic nerve [2]; dose conc 15 mM),Block Duration (min) Sensory (sciatic nerve [1]; dose conc 5 mM),cytotoxicity compared with ropivacaine and bupivacaine (in words) (PC12 cells),Block Duration (min) Motor (sciatic nerve [2]; dose conc 5 mM),cytotoxicity compared with ropivacaine and bupivacaine (in words) (C2C12 Mouse myoblasts),Sensory:Motor Block Ratio (sciatic nerve [1]; dose conc 5 mM),Block Duration (min) Sensory (sciatic nerve [1]; dose conc 7.5 mM),Block Duration (min) Motor (sciatic nerve [2]; dose conc 7.5 mM),"IC50 (PC12 cells; Rattus norvegicus, PC-12, cytotoxicity, exposure up to 24 h)","IC50 (C2C12 Mouse myoblasts; Mus musculus, cytotoxicity, exposure up to 24 h)"
"COC(=O)C[N@@+]1(C)CCCC[C@H]1C(=O)Nc1c(C)cccc1C (racemic) [Compound 3a, 2-((2,6-Dimethylphenyl)carbamoyl)-1-(2-methoxy-2-oxoethyl)-1-methylpiperidin-1-ium bromide]",0 min,0 min,,,,,,,,,,,
"CCCN1CCCC[C@H]1C(=O)Nc1c(C)cccc1C (single isomer, unassigned) [(S)-Ropivacaine, reference compound]",150 ± 35 min,150 ± 38 min,215 ± 31 min,210 ± 28 min,,,,,,,,,
"CCC[N+]1(COC(C)=O)CCCC[C@H]1C(=O)Nc1c(C)cccc1C.[Br-] (stereo partly shown) [Compound 10S, 1-(Acetoxymethyl)-2-((2,6-dimethylphenyl)carbamoyl)-1-propylpiperidin-1-ium bromide]",105 ± 53 min,65 ± 34 min,,,55 ± 23 min,significantly less cytotoxic than ropivacaine and bupivacaine,15 ± 15 min,significantly less cytotoxic than ropivacaine and bupivacaine,,,,,
"CCC[N@+]1(CC(=O)OC)CCCC[C@H]1C(=O)Nc1c(C)cccc1C.[Br-] (racemic) [4Sa + 4Sb, 2-((2,6-Dimethylphenyl)carbamoyl)-1-(2-methoxy-2-oxoethyl)-1-propylpiperidin-1-ium bromide]",220 ± 40 min,78 ± 24 min,254 ± 48 min,69 ± 20 min,34 ± 13 min,significantly less cytotoxic than ropivacaine and bupivacaine,0 min,significantly less cytotoxic than ropivacaine and bupivacaine,∞,108 ± 27 min,10 ± 10 min,,
"CCCC[N@+]1(CC(=O)OC)CCCC[C@H]1C(=O)Nc1c(C)cccc1C (racemic) [2a + 2b, 1-Butyl-2-((2,6-dimethylphenyl)carbamoyl)-1-(2-methoxy-2-oxoethyl)piperidin-1-ium bromide]",150 ± 51 min,50 ± 23 min,,,30 ± 12 min,significantly less cytotoxic than ropivacaine and bupivacaine,0 min,significantly less cytotoxic than ropivacaine and bupivacaine,∞,120 ± 34 min,30 ± 15 min,,
"CCC[N@@+]1(CC(=O)NC)CCCC[C@H]1C(=O)Nc1c(C)cccc1C [Compound 26Sa, 2-((2,6-dimethylphenyl)carbamoyl)-1-(2-(methylamino)-2-oxoethyl)-1-propyl-1-piperidin-2-ylium bromide]",180 min,140 min,,,,significantly less cytotoxic than ropivacaine and bupivacaine,,significantly less cytotoxic than ropivacaine and bupivacaine,,,,1200 µM,1000 µM
"CCCC[N+]1(COC(C)=O)CCCCC1C(=O)Nc1c(C)cccc1C.[Br-] (stereo not shown) [Compound 9, 1-(Acetoxymethyl)-1-butyl-2-((2,6-dimethylphenyl)carbamoyl)piperidin-1-ium bromide]",120 ± 53 min,75 ± 39 min,125 ± 51 min,85 ± 36 min,65 ± 23 min,,25 ± 19 min,,,,,,
"COC(=O)C[N@@+]1(C)CCCC[C@@H]1C(=O)Nc1c(C)cccc1C (racemic) [Compound 3b, 2-((2,6-Dimethylphenyl)carbamoyl)-1-(2-methoxy-2-oxoethyl)-1-methylpiperidin-1-ium bromide]",450 ± 60 min,300 ± 60 min,,,,,,,,,,,
"CCCC(=O)OC[N+]1(CCC)CCCC[C@H]1C(=O)Nc1c(C)cccc1C.[Cl-] (stereo in doubt) [Compound 11S, 1-((Butyryloxy)methyl)-2-((2,6-dimethylphenyl)carbamoyl)-1-propylpiperidin-1-ium chloride]",135 ± 56 min,90 ± 44 min,,,,significantly less cytotoxic than ropivacaine and bupivacaine,,significantly less cytotoxic than ropivacaine and bupivacaine,,,,,
"Br.CC[N+](CC)(CC(=O)Nc1c(C)cccc1C)CC(=O)OC [Compound 1, 2-((2,6-Dimethylphenyl)amino)-N,N-diethyl-N-(2-methoxy-2-oxoethyl)-2-oxoethan-1-aminium bromide]",,,,,,significantly less cytotoxic than ropivacaine and bupivacaine,,significantly less cytotoxic than ropivacaine and bupivacaine,,,,,
